Experimental data from patent US20240165282A1, “CONFORMATIONAL CONSTRAINED SOMATOSTATIN RECEPTOR 3 PEPTIDE LIGANDS AND THEIR CONJUGATES AND USES THEREOF” (STARGET PHARMA LTD., priority 2021, published 2024).
*1 amine or outer side, *2 acyl side, *3 side chain or, on linkers, in order; H or OH if unused. Where a SMILES comes first, the peptide text is derived from it. Bridges are numbered along the chain shown (N, C = ends). [ ]: non-standard residue; d: D form. The star is where a group is joined. DOTA = O=C(O)CN1CCN(CC(=O)O)CCN(CC(=O)*)CCN(CC(=O)O)CC1; N(2-mercaptoethyl)Gly = O=C(CN(CCS[*:3])[*:1])[*:2]

Key:
[1] = target: T1, hSSTR-4 (Homo sapiens, UniProt P31391); experiment: Radioligand binding, displacement of 125I-Tyr11-SRIF-14
T1 construct: host or cells: Chem-1 (Rat ChemiSCREEN) cells, membrane preparation
T1 sequence (P31391 whole entry): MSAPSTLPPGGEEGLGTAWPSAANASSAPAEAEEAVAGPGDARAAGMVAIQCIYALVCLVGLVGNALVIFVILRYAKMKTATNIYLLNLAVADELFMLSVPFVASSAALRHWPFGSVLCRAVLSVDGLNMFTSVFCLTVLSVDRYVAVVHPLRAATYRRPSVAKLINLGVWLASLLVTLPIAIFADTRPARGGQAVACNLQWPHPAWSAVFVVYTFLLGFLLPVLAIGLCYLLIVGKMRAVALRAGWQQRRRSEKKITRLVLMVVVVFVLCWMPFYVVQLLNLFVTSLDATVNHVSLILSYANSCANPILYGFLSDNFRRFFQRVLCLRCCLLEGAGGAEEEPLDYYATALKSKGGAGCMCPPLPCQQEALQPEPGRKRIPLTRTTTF
Outline: (§1)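 Assays ran at 25 °C in 25 mM HEPES pH 7.4 with 5 mM MgCl2, 1 mM CaCl2, 0.1% BSA and 1% DMSO. Filter-bound radioactivity gave IC50 by nonlinear least-squares regression.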

[2] = target: SSTR1 (Homo sapiens, UniProt P30872); experiment: as above; set-up: host or cells: CHO (Chinese Hamster Ovary) cells, membrane preparation
SSTR1, sequence (P30872 whole entry): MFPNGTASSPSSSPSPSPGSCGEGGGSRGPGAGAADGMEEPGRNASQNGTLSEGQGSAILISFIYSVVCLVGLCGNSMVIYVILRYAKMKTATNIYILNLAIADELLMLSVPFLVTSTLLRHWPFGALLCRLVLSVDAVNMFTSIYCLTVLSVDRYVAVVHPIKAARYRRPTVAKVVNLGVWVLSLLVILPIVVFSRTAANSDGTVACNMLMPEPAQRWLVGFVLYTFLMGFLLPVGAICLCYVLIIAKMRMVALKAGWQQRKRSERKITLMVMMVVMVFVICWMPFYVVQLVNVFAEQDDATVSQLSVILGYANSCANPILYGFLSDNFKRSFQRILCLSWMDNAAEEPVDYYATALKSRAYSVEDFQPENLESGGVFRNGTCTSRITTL
Outline: as §1

[3] = target: SSTR2 (Homo sapiens, UniProt P30874); experiment: as above; set-up: host or cells: CHO (Chinese Hamster Ovary) cells, membrane preparation
SSTR2, sequence (P30874 whole entry): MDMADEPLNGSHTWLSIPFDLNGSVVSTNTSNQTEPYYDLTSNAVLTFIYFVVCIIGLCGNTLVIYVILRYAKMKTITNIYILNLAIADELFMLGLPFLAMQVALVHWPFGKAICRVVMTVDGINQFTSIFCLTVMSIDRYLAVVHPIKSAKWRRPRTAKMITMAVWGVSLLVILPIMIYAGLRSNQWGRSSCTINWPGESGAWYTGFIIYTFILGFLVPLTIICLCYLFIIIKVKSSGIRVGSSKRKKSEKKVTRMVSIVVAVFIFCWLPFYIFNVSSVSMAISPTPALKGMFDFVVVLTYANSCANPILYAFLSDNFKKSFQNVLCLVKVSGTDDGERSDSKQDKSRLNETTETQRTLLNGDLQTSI
Outline: as §1

[4] = target: SSTR3 (Homo sapiens, UniProt P32745); experiment: as above; set-up: host or cells: CHO (Chinese Hamster Ovary) cells, membrane preparation
SSTR3, sequence (P32745 whole entry): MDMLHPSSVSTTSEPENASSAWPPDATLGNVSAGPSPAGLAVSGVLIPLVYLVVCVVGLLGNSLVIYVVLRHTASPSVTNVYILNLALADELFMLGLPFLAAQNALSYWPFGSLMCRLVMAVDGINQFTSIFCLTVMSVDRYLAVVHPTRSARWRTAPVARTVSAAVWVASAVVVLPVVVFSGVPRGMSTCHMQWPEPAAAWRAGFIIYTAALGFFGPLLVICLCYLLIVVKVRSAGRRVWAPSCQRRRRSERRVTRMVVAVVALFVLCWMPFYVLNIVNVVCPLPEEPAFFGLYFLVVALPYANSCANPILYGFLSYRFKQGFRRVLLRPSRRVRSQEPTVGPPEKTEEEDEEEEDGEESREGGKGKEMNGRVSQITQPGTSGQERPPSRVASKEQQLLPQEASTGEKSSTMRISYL
Outline: as §1

[5] = target: T2, PDE4D2 (h) (Homo sapiens, UniProt Q08499); experiment: Cerep off-target enzyme inhibition; format: biochemical; details: 1 micromolar; Enzymatic; read-out: % Activity: Inhibition of Control Specific Binding
T2 construct: Eurofins Cerep (contract assay)
T2 sequence (Q08499 303-809): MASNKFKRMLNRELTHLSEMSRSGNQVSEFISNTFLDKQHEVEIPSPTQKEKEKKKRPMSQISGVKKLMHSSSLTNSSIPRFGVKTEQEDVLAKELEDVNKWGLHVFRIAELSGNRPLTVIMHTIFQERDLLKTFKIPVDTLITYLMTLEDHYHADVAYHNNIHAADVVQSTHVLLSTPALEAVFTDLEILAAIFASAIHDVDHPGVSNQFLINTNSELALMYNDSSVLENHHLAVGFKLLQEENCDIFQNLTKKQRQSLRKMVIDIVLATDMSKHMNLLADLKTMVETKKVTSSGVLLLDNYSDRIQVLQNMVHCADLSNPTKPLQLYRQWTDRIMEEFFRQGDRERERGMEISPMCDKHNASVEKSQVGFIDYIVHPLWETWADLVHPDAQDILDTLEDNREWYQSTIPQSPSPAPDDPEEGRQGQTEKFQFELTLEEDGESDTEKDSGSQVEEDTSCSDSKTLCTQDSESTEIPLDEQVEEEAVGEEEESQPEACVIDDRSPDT
Experimental: (§2) In this example, off-target interactions for SEQ ID NO.
(§3) The assays were performed by Eurofins Cerep (Celle 1'Evescault, France). Compound binding was calculated as a % inhibition of the binding of a radioactively labeled ligand specific for each target. Compound enzyme inhibition effect was calculated as a % inhibition of control enzyme activity. In each experiment and if applicable, the respective reference compound was tested concurrently with SEQ ID NO. 3, and the data were compared with historical values determined at Eurofins. The experiment was accepted in accordance with Eurofins validation Standard Operating Procedure. Results showing an inhibition (or stimulation for assays run in basal conditions) higher than 50% are considered to represent significant effects of the test compounds.

[6] = target: T3, Lck kinase (h) (Homo sapiens, UniProt P06239); experiment: Cerep off-target enzyme inhibition; format: biochemical; details: 1 micromolar; Enzymatic; read-out: % Activity: Inhibition of Control Specific Binding
T3 construct: Eurofins Cerep (contract assay)
Experimental: as §2, §3

[7] = target: T4, COX1(h) (Homo sapiens, UniProt P23219); experiment: Cerep off-target enzyme inhibition; format: biochemical; details: 1 micromolar; Enzymatic; read-out: % Activity: Inhibition of Control Specific Binding
T4 construct: Eurofins Cerep (contract assay)
T4 sequence (P23219 24-599): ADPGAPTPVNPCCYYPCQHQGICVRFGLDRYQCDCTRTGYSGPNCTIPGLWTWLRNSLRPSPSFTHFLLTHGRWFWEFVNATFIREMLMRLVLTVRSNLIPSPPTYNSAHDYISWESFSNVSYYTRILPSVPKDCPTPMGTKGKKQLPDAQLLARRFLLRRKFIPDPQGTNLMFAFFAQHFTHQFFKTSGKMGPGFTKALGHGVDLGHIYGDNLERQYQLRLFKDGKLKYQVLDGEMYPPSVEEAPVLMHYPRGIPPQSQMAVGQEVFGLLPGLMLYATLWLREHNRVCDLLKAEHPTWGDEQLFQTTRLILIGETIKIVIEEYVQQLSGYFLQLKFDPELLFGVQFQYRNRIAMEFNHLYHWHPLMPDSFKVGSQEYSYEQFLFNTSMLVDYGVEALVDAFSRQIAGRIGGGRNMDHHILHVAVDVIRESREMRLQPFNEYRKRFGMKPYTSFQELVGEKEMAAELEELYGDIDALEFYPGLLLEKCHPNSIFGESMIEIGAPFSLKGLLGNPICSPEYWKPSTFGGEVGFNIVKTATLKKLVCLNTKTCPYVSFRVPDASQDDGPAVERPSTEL
Experimental: as §2, §3

[8] = target: T5, COX2(h) (Homo sapiens, UniProt P35354); experiment: Cerep off-target enzyme inhibition; format: biochemical; details: 1 micromolar; Enzymatic; read-out: % Activity: Inhibition of Control Specific Binding
T5 construct: Eurofins Cerep (contract assay)
Experimental: as §2, §3

[9] = target: T6, acetylcholinesterase (h) (Homo sapiens, UniProt P22303); experiment: Cerep off-target enzyme inhibition; format: biochemical; details: 1 micromolar; Enzymatic; read-out: % Activity: Inhibition of Control Specific Binding
T6 construct: Eurofins Cerep (contract assay)
Experimental: as §2, §3

[10] = target: T7, PDE3A (h) (Homo sapiens, UniProt Q14432); experiment: Cerep off-target enzyme inhibition; format: biochemical; details: 1 micromolar; Enzymatic; read-out: % Activity: Inhibition of Control Specific Binding
T7 construct: Eurofins Cerep (contract assay)
T7 sequence (Q14432 whole entry): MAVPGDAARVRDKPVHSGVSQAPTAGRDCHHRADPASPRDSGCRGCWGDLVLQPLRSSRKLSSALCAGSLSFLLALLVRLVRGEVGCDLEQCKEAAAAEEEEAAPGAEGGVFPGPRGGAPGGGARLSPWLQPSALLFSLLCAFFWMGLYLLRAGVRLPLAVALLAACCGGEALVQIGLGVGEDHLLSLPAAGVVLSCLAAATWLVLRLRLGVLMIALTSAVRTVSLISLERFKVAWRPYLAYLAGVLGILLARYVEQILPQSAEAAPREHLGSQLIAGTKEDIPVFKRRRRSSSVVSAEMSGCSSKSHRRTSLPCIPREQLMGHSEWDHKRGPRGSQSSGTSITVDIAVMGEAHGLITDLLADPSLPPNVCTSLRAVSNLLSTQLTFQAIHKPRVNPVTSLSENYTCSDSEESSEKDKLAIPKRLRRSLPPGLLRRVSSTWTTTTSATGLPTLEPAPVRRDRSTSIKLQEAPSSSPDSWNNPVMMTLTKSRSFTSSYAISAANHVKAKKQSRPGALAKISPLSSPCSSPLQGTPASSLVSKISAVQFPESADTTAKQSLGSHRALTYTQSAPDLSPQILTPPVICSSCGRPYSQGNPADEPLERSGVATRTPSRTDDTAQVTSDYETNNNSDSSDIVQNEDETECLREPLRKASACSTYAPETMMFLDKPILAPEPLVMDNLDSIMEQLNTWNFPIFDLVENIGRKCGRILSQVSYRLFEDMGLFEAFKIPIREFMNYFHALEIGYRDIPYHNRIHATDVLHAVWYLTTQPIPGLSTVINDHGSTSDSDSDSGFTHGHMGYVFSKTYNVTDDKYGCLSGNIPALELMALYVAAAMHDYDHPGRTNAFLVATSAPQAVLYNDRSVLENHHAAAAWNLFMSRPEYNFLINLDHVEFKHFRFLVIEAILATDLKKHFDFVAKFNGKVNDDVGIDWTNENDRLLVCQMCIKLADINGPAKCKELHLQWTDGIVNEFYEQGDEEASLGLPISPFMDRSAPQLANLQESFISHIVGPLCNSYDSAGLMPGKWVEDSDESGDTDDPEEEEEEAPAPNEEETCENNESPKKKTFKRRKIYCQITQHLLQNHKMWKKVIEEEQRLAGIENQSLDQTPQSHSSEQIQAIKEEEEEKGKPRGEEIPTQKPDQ
Experimental: as §2, §3

[11] = target: SSTR5 (Homo sapiens, UniProt P35346); experiment: Radioligand binding, displacement of 125I-Tyr11-SRIF-14; set-up: host or cells: Chem-1 (Rat ChemiSCREEN) cells, membrane preparation
SSTR5, sequence (P35346 whole entry): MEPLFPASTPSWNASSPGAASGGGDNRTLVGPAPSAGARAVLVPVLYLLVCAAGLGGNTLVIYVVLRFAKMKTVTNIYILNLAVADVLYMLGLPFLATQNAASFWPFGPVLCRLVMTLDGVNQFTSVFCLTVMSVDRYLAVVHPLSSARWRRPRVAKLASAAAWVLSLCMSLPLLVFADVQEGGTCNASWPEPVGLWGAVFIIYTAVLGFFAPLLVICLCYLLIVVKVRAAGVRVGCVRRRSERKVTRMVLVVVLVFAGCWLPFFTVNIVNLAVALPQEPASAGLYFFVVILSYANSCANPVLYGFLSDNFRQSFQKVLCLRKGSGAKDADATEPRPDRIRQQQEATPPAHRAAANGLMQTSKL
Outline: as §1

[12] = test system: 44 human cloned GPCRs and GPCR mediated cellular enzymatic activities; experiment: Eurofins Cerep off-target safety pharmacology panel; format: binding; details: 1 micromolar
Experimental: as §2, §3
Results showing an inhibition (or stimulation) between 25% and 50% are indicative of weak to moderate effects (in most assays, they should be confirmed by further testing as they are within a range where more inter-experimental variability can occur). […]
Low to moderate negative values have no real meaning and are attributable to variability of the signal around the control level. […] The results are expressed as a percent of control specific binding measured specific binding

[13] = test system: AR(h); experiment: Cerep off-target radioligand binding; set-up: species or system human; details: 1 micromolar; agonist radioligand
Experimental: as §2, §3

[14] = test system: Ca2+ channel (L, dihydropyridine site); experiment: Cerep off-target radioligand binding; set-up: species or system human; details: 1 micromolar; antagonist radioligand
Experimental: as §2, §3

[15] = target: T8, MAO-A (Rattus norvegicus, UniProt P21396); experiment: Cerep off-target radioligand binding; set-up: species or system human; details: 1 micromolar; antagonist radioligand; read-out: % Activity: Inhibition of Control Specific Binding
T8 construct: Eurofins Cerep (assay service)
Experimental: as §2, §3

[16] = test system: BZD (central); experiment: Cerep off-target radioligand binding; set-up: species or system human; details: 1 micromolar; agonist radioligand
Experimental: as §2, §3

[17] = test system: Na+ channel (site 2); experiment: Cerep off-target radioligand binding; set-up: species or system human; details: 1 micromolar; antagonist radioligand
Experimental: as §2, §3

[18] = test system: KV channel; experiment: Cerep off-target radioligand binding; set-up: species or system human; details: 1 micromolar; antagonist radioligand
Experimental: as §2, §3

[19] = test system: NMDA; experiment: Cerep off-target radioligand binding; set-up: species or system human; details: 1 micromolar; antagonist radioligand
Experimental: as §2, §3

[20] = target: T9, 5-HT transporter (h) (Homo sapiens, UniProt P31645); experiment: Cerep off-target radioligand binding; details: 1 micromolar; antagonist radioligand; read-out: % Activity: Inhibition of Control Specific Binding
T9 construct: Eurofins Cerep (contract assay)
T9 sequence (P31645 whole entry): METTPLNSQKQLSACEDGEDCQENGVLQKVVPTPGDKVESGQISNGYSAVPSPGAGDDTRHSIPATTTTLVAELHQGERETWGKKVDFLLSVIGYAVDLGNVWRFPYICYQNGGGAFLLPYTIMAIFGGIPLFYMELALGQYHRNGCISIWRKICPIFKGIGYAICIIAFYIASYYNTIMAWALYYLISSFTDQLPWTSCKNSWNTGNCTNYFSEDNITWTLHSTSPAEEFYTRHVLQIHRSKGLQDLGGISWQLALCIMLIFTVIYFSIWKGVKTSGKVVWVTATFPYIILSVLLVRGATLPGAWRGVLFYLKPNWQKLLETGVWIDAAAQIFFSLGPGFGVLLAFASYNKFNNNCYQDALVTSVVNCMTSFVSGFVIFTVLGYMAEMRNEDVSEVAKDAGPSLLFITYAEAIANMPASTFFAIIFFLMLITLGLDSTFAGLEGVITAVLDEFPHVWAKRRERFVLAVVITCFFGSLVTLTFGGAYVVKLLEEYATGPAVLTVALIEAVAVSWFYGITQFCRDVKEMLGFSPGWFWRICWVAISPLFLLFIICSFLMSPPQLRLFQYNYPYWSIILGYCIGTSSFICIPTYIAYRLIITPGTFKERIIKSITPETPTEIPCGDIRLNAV
Experimental: as §2, §3

C[C@@H](O)[C@@H]1NC(=O)[C@H](CCCCN)NC(=O)[C@@H](Cc2c[nH]c3ccccc23)NC(=O)[C@H](Cc2ccccc2)NC(=O)[C@@H](NC(=O)[C@H](CCCNC(=N)N)NC(=O)[C@@H](Cc2ccccc2)NC(=O)CN2CCN(CC(=O)O)CCN(CC(=O)O)CCN(CC(=O)O)CC2)CSSCCN(CC(N)=O)C(=O)[C@H](Cc2ccccc2)NC1=O [SEQ ID NO: 3, DOTA-D-Phe^1-Arg^2-Cys^3-Phe^4-D-Trp^5-Lys^6-Thr^7-Phe^8-NTEG^9-NH2 cyclo 3-9] ({DOTA}-[dF]RCF[dW]KTF[N(2-mercaptoethyl)Gly]-NH2; disulfide 3-9)
IC50 [1]: > 1000 nM
Ki [1]: > 1000 nM
Hill coefficient (nH) ([1]; hSSTR-4): 1.14
IC50 [2]: 310 nM
Ki [2]: 260 nM
Hill coefficient (nH) ([2]; hSSTR-1): 0.86
IC50 [3]: 590 nM
Ki [3]: 310 nM
Hill coefficient (nH) ([3]; hSSTR-2): 1.62
IC50 [4]: 0.83 nM
Ki [4]: 0.28 nM
affinity and selectivity to SSTR3 (in words) ([4]; binding data, listed as DOTA conjugate of SEQ ID NO: 1): did not interfere with the binding affinity and selectivity of SEQ ID NO: 1
Hill coefficient (nH) ([4]; hSSTR-3): 1.15
inhibition at 1 µM [5]: -2%
inhibition at 1 µM [6]: -4%
inhibition at 1 µM [7]: 9%
inhibition at 1 µM [8]: 18%
inhibition at 1 µM [9]: 6%
inhibition at 1 µM [10]: 0%
IC50 [11]: > 1000 nM
Ki [11]: 660 nM
Hill coefficient (nH) ([11]; hSSTR-5): 1.57
off-target interactions with opiate receptors [12]: not indicated
off-target interactions, safety pharmacology panel (in words) [12]: no interaction with human cloned GPCRs of clinical significance
% Activity: Inhibition of Control Specific Binding [13]: −9%
% Activity: Inhibition of Control Specific Binding [14]: −10%
inhibition at 1 µM [15]: 3%
% Activity: Inhibition of Control Specific Binding [16]: −7%
% Activity: Inhibition of Control Specific Binding [17]: 3%
% Activity: Inhibition of Control Specific Binding [18]: −5%
% Activity: Inhibition of Control Specific Binding [19]: 10%
inhibition at 1 µM [20]: -9%
